Assay results from ChEMBL document CHEMBL1201862, “PubChem BioAssay data set” (2004).
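A five-concentration, 48-hour dose response in 96-well plates underlies each endpoint, interpolated linearly between surrounding concentrations. At the GI50, growth is halved.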 Active and inactive are the calls of the source. Rule as the data show it: active = GI50 up to about 1.1 µM and inactive = higher.

How the values were obtained:
Test in all cases: NCI tumour cell line growth inhibition, 48 h
786-0 = test system: 786-0
A498 = test system: A498
A549 = test system: A549
ACHN = test system: ACHN
BT-549 = test system: BT-549
CCRF-CEM = test system: CCRF-CEM
COLO 205 = test system: COLO 205
DLD-1 = test system: DLD-1
DMS-114 = test system: DMS-114
DMS-273 = test system: DMS-273
DU-145 = test system: DU-145
EKVX = test system: EKVX
HCC 2998 = test system: HCC 2998
HCT-116 = test system: HCT-116
HCT-15 = test system: HCT-15
HL-60 = test system: HL-60
HOP-18 = test system: HOP-18
HOP-62 = test system: HOP-62
HOP-92 = test system: HOP-92
HT-29 = test system: HT-29
Hs-578T = test system: Hs-578T
IGROV-1 = test system: IGROV-1
K562 = test system: K562
KM-20L2 = test system: KM-20L2
KM12 = test system: KM12
LOX IMVI = test system: LOX IMVI
LXFL 529 = test system: LXFL 529
M14 = test system: M14
M19-MEL = test system: M19-MEL
MCF7 = test system: MCF7
MDA-MB-231 = test system: MDA-MB-231
MDA-MB-435 = test system: MDA-MB-435
MDA-N = test system: MDA-N
MOLT-4 = test system: MOLT-4
Malme-3M = test system: Malme-3M
NCI-H226 = test system: NCI-H226
NCI-H23 = test system: NCI-H23
NCI-H460 = test system: NCI-H460
NCI-H522 = test system: NCI-H522
NCI/ADR-RES = test system: NCI/ADR-RES
OVCAR-3 = test system: OVCAR-3
OVCAR-4 = test system: OVCAR-4
OVCAR-5 = test system: OVCAR-5
OVCAR-8 = test system: OVCAR-8
PC-3 = test system: PC-3
RPMI-8226 = test system: RPMI-8226
RXF 393 = test system: RXF 393
SF-268 = test system: SF-268
SF-295 = test system: SF-295
SF-539 = test system: SF-539
SK-MEL-28 = test system: SK-MEL-28
SK-MEL-2 = test system: SK-MEL-2
SK-MEL-5 = test system: SK-MEL-5
SK-OV-3 = test system: SK-OV-3
SN12C = test system: SN12C
SNB-19 = test system: SNB-19
SNB-75 = test system: SNB-75
SNB-78 = test system: SNB-78
SR = test system: SR
SW-620 = test system: SW-620
T47D = test system: T47D
TK-10 = test system: TK-10
U-251 = test system: U-251
UACC-257 = test system: UACC-257
UACC-62 = test system: UACC-62
UO-31 = test system: UO-31
XF498 = test system: XF498
CAKI-1 = test system: CAKI-1

Measured: GI50

CCCCc1c2c(nc3c1CCC/C3=C\c1ccccc1)C(=O)C(CN(C)C)CC2 (configuration not stated)
inactive: 786-0 10 µM | A498 18.7 µM | A549 19.9 µM | ACHN 15.9 µM | BT-549 4.32 µM | CCRF-CEM 3.17 µM | COLO 205 19.1 µM | DLD-1 17.1 µM | DMS-114 17.7 µM | DMS-273 20.2 µM | DU-145 15.6 µM | EKVX 18.5 µM | HCC 2998 28 µM | HCT-116 16 µM | HL-60 2.67 µM | HOP-18 23.6 µM | HOP-62 16.5 µM | HOP-92 16.6 µM | HT-29 12.4 µM | Hs-578T 17.9 µM | IGROV-1 18.3 µM | K562 6.89 µM | KM-20L2 17.8 µM | KM12 16.9 µM | LOX IMVI 16.2 µM | LXFL 529 8.38 µM | M14 17.4 µM | M19-MEL 16.7 µM | MCF7 3.37 µM | MDA-MB-231 11.1 µM | MDA-MB-435 17.2 µM | MDA-N 7.28 µM | MOLT-4 2.86 µM | Malme-3M 22.1 µM | NCI-H226 22.6 µM | NCI-H23 16.5 µM | NCI-H460 17.3 µM | NCI-H522 13.8 µM | NCI/ADR-RES 29.3 µM | OVCAR-3 19.5 µM | OVCAR-4 14.3 µM | OVCAR-5 18.2 µM | OVCAR-8 20.8 µM | PC-3 14.1 µM | RPMI-8226 4.17 µM | RXF 393 16.3 µM | SF-268 16.2 µM | SF-295 16.7 µM | SF-539 20.7 µM | SK-MEL-28 14.8 µM | SK-MEL-2 20.2 µM | SK-MEL-5 16.9 µM | SK-OV-3 18.5 µM | SN12C 20.1 µM | SNB-19 18.3 µM | SNB-75 18.1 µM | SNB-78 20.7 µM | SR 2.76 µM | SW-620 10.4 µM | T47D 3.61 µM | TK-10 15.7 µM | U-251 16.6 µM | UACC-257 17 µM | UACC-62 20.3 µM | UO-31 18.9 µM | XF498 14.9 µM
8.97 µM: HCT-15

NC1c2ccccc2Nc2ccccc21
inactive: 786-0 3.84 µM | A498 8.34 µM | A549 4.26 µM | ACHN 4.9 µM | CAKI-1 3.63 µM | CCRF-CEM 5.2 µM | COLO 205 2.21 µM | DLD-1 3.8 µM | DMS-114 3.24 µM | DMS-273 4.52 µM | EKVX 5.71 µM | HCC 2998 6.46 µM | HCT-116 3.23 µM | HL-60 4.3 µM | HOP-18 8.81 µM | HOP-62 6.15 µM | HOP-92 3.27 µM | HT-29 4.08 µM | IGROV-1 2.95 µM | K562 3.54 µM | KM-20L2 3.76 µM | KM12 4.22 µM | LOX IMVI 3.53 µM | LXFL 529 4.94 µM | M14 3.92 µM | M19-MEL 3.36 µM | MOLT-4 2.94 µM | Malme-3M 4.97 µM | NCI-H226 9.1 µM | NCI-H23 4.74 µM | NCI-H460 2.76 µM | NCI-H522 2.15 µM | OVCAR-3 6.08 µM | OVCAR-5 5.04 µM | OVCAR-8 4.34 µM | RPMI-8226 4.56 µM | RXF 393 6.24 µM | SF-268 3.08 µM | SF-295 4.49 µM | SK-MEL-28 3.54 µM | SK-MEL-2 13.2 µM | SK-MEL-5 5.28 µM | SK-OV-3 4.67 µM | SN12C 4.53 µM | SNB-19 5.18 µM | SNB-75 11.8 µM | SNB-78 9.1 µM | SR 2.64 µM | SW-620 3.66 µM | TK-10 5.82 µM | UACC-257 5.21 µM | UACC-62 4.26 µM | UO-31 3.27 µM | XF498 3.16 µM
3.31 µM: HCT-15
